For nine compounds, IC50 results are on record in ChEMBL document CHEMBL4350997, “The synthesis and anticancer activity of 2-styrylquinoline derivatives. A p53 independent mechanism of action” (Eur J Med Chem, 2019).

In test [1] the test system is HCT-116. The experiment in a line: Cytotoxicity against human HCT116 cells expressing wild type p53 incubated for 72 hrs by MTS assay. The following applies: HCT-116, 72 h.
The test system of test [2] is HCT-116. The test is described as follows: Cytotoxicity against human HCT116 cells deficient in p53 incubated for 72 hrs by MTS assay. As to conditions: HCT-116, 72 h. On the technique in general: Tetrazolium dyes change colour on reduction, which living cells bring about.
For a further test, the system named is NHDF. The experiment in a line: Cytotoxicity against human NHDF cells incubated for 72 hrs by MTS assay. Format: cell-based.
In the next test the test system is PANC-1. The experiment in a line: Cytotoxicity against human PANC1 cells harboring mutant TP53 gene incubated for 72 hrs by MTS assay. As to conditions: PANC-1, 72 h. Type of test: functional, cell-based.
Another test has as its system U-251. The experiment in a line: Cytotoxicity against human U251 cells harboring mutant TP53 gene incubated for 72 hrs by MTS assay. The following applies: U-251, 72 h. Format: functional, cell-based.
Test [3] relates to HCT-116. The experiment in a line: Anticancer activity against human HCT116 cells deficient in p53 assessed as inhibition of cell proliferation. Format: functional, cell-based.
The subject of test [4] is HCT-116. The experiment in a line: Anticancer activity against human HCT116 cells assessed as inhibition of cell proliferation.
The next test has as its system MCF7. The experiment in a line: Anticancer activity against human MCF7 cells assessed as inhibition of cell proliferation. Type of test: functional, cell-based.
The next test relates to HepG2. The experiment in a line: Anticancer activity against human HepG2 cells assessed as inhibition of cell proliferation. Type of test: functional, cell-based.
A further test deals with ASPC1. The test is described as follows: Cytotoxicity against human AsPC1 cells deficit of P53 gene incubated for 72 hrs by MTS assay. Type of test: functional, cell-based. As to conditions: ASPC1, 72 h.

What is called pIC50 is the IC50 on a negative log10 scale, so that one unit is a factor of ten. A word on the IC50: it is the concentration needed to halve the response being measured.

pIC50: −log10 of the molar value. In brackets after ≈: the same amount, converted by molar mass.

`COc1ccc(/C=C/c2nc(NCCCN(C)C)c3ccccc3n2)cc1`: the pIC50 was 4.73 in the test on HCT-116 [1]; 4.58 in the test with HCT-116 [2]; 4.91 in the test with NHDF; < 4.60 with PANC-1 (read-out: IC50); 4.73 in the test with U-251.
`Oc1cccc2ccc(/C=C/c3ccccc3F)nc12`: the negative logarithm of the IC50 (pIC50) with HCT-116 [3] was 5.08.
In the case of `O=c1[nH]cc(F)c(=O)[nH]1` [FLUOROURACIL], the pIC50 in the test with HCT-116 [1] is 5.35; with HCT-116 [2], 5.33; in the test on NHDF, < 4.60.
Turning to `CC(=O)Oc1ccccc1/C=C/c1ccc2cccc(O)c2n1`, the pIC50 was 5.14 with HCT-116 [1], 4.87 in the test with HCT-116 [2], 5.16 in the test on NHDF and 5.14 in the test with HCT-116 [4].
As to `COc1cccc2c(Nc3ccc(/C(C)=N/O)cc3)cc(/C=C/c3ccccc3)nc12`, in the test with MCF7, the IC50 is > 4 µg/mL.
On to `CN(C)c1ccc(/C=C/c2cc(-c3nnc(N)s3)c3cc(Br)ccc3n2)cc1`, for which the half-maximal inhibitory concentration (IC50) in the test with HepG2 was 9 µg/mL (≈ 19.9 µM).
For `Oc1ccc(/C=C/c2ccc3cccc(O)c3n2)cc1`, the results for the pIC50 with HCT-116 [1], in the test with HCT-116 [2] and in the test on NHDF were 4.87, 4.78 and < 4.60, respectively.
On to `COc1cccc2c1C(=O)c1c(O)c3c(c(O)c1C2=O)C[C@@](O)(C(=O)CO)C[C@@H]3O[C@H]1C[C@H](N)[C@H](O)[C@H](C)O1` [DOXORUBICIN], for which the pIC50 in the test on HCT-116 [1] is 6.47; in the test on HCT-116 [2], 6.42; with NHDF, 6.85; in the test with PANC-1, 6.14; in the test with ASPC1, 6.07; in the test on U-251 it was 7.30.
Turning to `Oc1cccc2ccc(/C=C/c3c(F)cccc3Cl)nc12`, the pIC50 in the test with HCT-116 [1] and in the test with HCT-116 [2] was < 4.60 in each case.
